Converted amounts (≈) assume the structure as drawn. Where two headings read alike, the source gives them in different places.
Legend:
Format in all cases: cell-based
[1] = tested on: Strep. fec. MGH 2; experiment: In vitro minimal inhibitory concentration, Strep. fec. MGH 2
[2] = tested on: E. Coli. Brig; experiment: In vitro minimal inhibitory concentration, E. Coli. Brig; conditions: Escherichia coli
[3] = tested on: Serr. Mar. IMM 16; experiment: In vitro minimal inhibitory concentration, Serr. Mar. IMM 16
[4] = tested on: E. Coli. Vogel; experiment: In vitro minimal inhibitory concentration, E. Coli. Vogel; conditions: Escherichia coli
[5] = tested on: Pseudomonas #28; experiment: In vitro minimal inhibitory concentration, Pseudomonas #28; conditions: read-out: Minimal Inhibitory Concentration
[6] = tested on: Staph S 18713; experiment: In vitro minimal inhibitory concentration, Staph S 18713
[7] = tested on: Entero Cloac. IM 11; experiment: In vitro minimal inhibitory concentration, Entero Cloac. IM 11
[8] = tested on: Pseudomonas UI 18; experiment: In vitro minimal inhibitory concentration, Pseudomonas UI 18; conditions: UI18
[9] = tested on: Staph UC76; experiment: In vitro minimal inhibitory concentration, Staph UC76
[10] = tested on: Klebs. Pneum. MGH 2; experiment: In vitro minimal inhibitory concentration, Klebs. Pneum. MGH 2
[11] = tested on: Pseudomonas BRK 12-4-4; experiment: In vitro minimal inhibitory concentration, Pseudomonas BRK 12-4-4; conditions: BRK1244
[12] = tested on: Prot Vulg.; experiment: In vitro minimal inhibitory concentration, Prot Vulg.

| Compound | MIC [1] [µg/mL] | MIC [2] [µg/mL] | MIC [3] [µg/mL] | MIC [4] [µg/mL] | MIC ([5]; Pseudomonas #28, in vitro) [µg/mL] | MIC [6] [µg/mL] | MIC [7] [µg/mL] | MIC [8] [µg/mL] | MIC [9] [µg/mL] | MIC [10] [µg/mL] | MIC [11] [µg/mL] | MIC [12] [µg/mL] | MIC ([5]; Pseudomonas) [µg/mL] |
| --- | --- | --- | --- | --- | --- | --- | --- | --- | --- | --- | --- | --- | --- |
| CC(=O)N[C@H](C)C(=O)Nc1ccc(-c2ccc(C(=O)N[C@@H](C(=O)NC3C(=O)N4C(C(=O)O)=C(CSc5nnnn5C)CSC34)c3ccccc3)c(=O)[nH]2)cc1 (stereo partly drawn) [Example 19, N-[6-[4-(N-Acetyl-D-alanylamino)phenyl]-1,2-dihydro-2-oxonicotinyl]-7-[D-2-amino-2-phenylacetamido]-3-[[(1-methyl-1H-tetrazol-5-yl)thio]methyl]-3-cephem-4-carboxylic acid] | 25 (≈ 31.8 µM) | 6.3 (≈ 8.01 µM) | 25 (≈ 31.8 µM) | 0.8 (≈ 1.02 µM) | 6.3 (≈ 8.01 µM) | 6.3 (≈ 8.01 µM) | 12.5 (≈ 15.9 µM) | 6.3 (≈ 8.01 µM) | 0.8 (≈ 1.02 µM) | 3.1 (≈ 3.94 µM) | 12.5 (≈ 15.9 µM) | 12.5 (≈ 15.9 µM) |  |
| CC(=O)N[C@@H](CCC(N)=O)C(=O)Nc1ccc(-c2ccc(C(=O)N[C@@H](C(=O)NC3C(=O)N4C(C(=O)O)=C(CSc5nnnn5CS(=O)(=O)O)CSC34)c3ccccc3)c(=O)[nH]2)cc1 (stereo partly drawn) [Example 42, N-[6-[4-(N-Acetyl-L-glutaminylamino)phenyl]-1,2-dihydro-2-oxonicotinyl]-7-[D-2-amino-2-phenylacetamido]-3-[[(1-sulfomethyl-1H-tetrazol-5-yl)thio]methyl]-3-cephem-4-carboxylic acid] | > 50 | 6.3 (≈ 6.82 µM) | 12.5 (≈ 13.5 µM) | 0.8 (≈ 0.866 µM) |  | 12.5 (≈ 13.5 µM) | 6.3 (≈ 6.82 µM) | 6.3 (≈ 6.82 µM) | 6.3 (≈ 6.82 µM) | 3.1 (≈ 3.36 µM) | 6.3 (≈ 6.82 µM) | 3.1 (≈ 3.36 µM) | 12.5 (≈ 13.5 µM) |
| CC(=O)N[C@H](C)C(=O)Nc1cccc(-c2ccc(C(=O)N[C@@H](C(=O)NC3C(=O)N4C(C(=O)O)=C(COC(C)=O)CSC34)c3ccccc3)c(=O)[nH]2)c1 (stereo partly drawn) [Example 28] | 25 (≈ 34.2 µM) | 25 (≈ 34.2 µM) | > 50 | 12.5 (≈ 17.1 µM) | 12.5 (≈ 17.1 µM) | 1.6 (≈ 2.19 µM) | 50 (≈ 68.4 µM) | 12.5 (≈ 17.1 µM) | 1.6 (≈ 2.19 µM) | 25 (≈ 34.2 µM) | 25 (≈ 34.2 µM) | 50 (≈ 68.4 µM) |  |
| CC(=O)NCCCCC(NC(C)=O)C(=O)Nc1ccc(-c2ccc(C(=O)N[C@@H](C(=O)NC3C(=O)N4C(C(=O)O)=C(COC(C)=O)CSC34)c3ccccc3)c(=O)[nH]2)cc1 (mixture of isomers) [Example 27, N-[6-[4-(N,N'-Diacetyl-DL-lysylamino)phenyl]-1,2-dihydro-2-oxonicotinyl]-7-[D-2-amino-2-phenylacetamido]-3-acetoxymethyl-3-cephem-4-carboxylic acid] | 25 | 25 | > 50 | 3.1 | 3.1 | 12.5 | 12.5 | 6.3 | 1.6 | 6.3 | 12.5 | 50 |  |
| CC(=O)N[C@H](C)C(=O)Nc1ccc(-c2ccc(C(=O)N[C@@H](C(=O)NC3C(=O)N4C(C(=O)O)=C(COC(N)=O)CSC34)c3ccccc3)c(=O)[nH]2)cc1 (stereo partly drawn) [Example 24, N-[6-[4(N-Acetyl-D-alanylamino)phenyl]-1,2-dihydro-2-oxonicotinyl]-7-[D-2-amino-phenylacetamido]-3-carbamoyloxymethyl-3-cephem-4-carboxylic acid] | 25 (≈ 34.2 µM) | 25 (≈ 34.2 µM) | > 50 | 6.3 (≈ 8.61 µM) | 12.5 (≈ 17.1 µM) |  | 25 (≈ 34.2 µM) | 12.5 (≈ 17.1 µM) | 0.4 (≈ 0.547 µM) | 12.5 (≈ 17.1 µM) | 12.5 (≈ 17.1 µM) | 12.5 (≈ 17.1 µM) |  |
| CC(=O)N[C@@H](CCC(N)=O)C(=O)Nc1ccc(-c2ccc(C(=O)N[C@@H](C(=O)NC3C(=O)N4C(C(=O)O)=C(CSc5nnnn5CC(=O)O)CSC34)c3ccccc3)c(=O)[nH]2)cc1 (stereo partly drawn) [Example 21, N-[6-[4-(N-Acetyl-L-glutaminylamino)phenyl]-1,2-dihydro-2-oxonicotinyl]-7-[D-2-amino-2-phenylacetamido]-3-[[(1-carboxymethyl-1H-tetrazol-5-yl)thio]methyl]-3-cephem-4-carboxylic acid] | 50 (≈ 56.3 µM) | 3.1 (≈ 3.49 µM) | 12.5 (≈ 14.1 µM) | 3.1 (≈ 3.49 µM) | 6.3 (≈ 7.1 µM) |  | 6.3 (≈ 7.1 µM) | 6.3 (≈ 7.1 µM) | 6.3 (≈ 7.1 µM) | 3.1 (≈ 3.49 µM) | 12.5 (≈ 14.1 µM) | 3.1 (≈ 3.49 µM) |  |
| CC(=O)N[C@H](C)C(=O)Nc1ccc(-c2ccc(C(=O)N[C@@H](C(=O)NC3C(=O)N4C(C(=O)O)=C(COC(C)=O)CSC34)c3ccccc3)c(=O)[nH]2)cc1 (stereo partly drawn) [Example 4, N-[6-[4-(N-Acetyl-D-alanylamino)phenyl]-1,2-dihydro-2-oxonicotinyl]-7-[D-2-amino-2-phenylacetamido]-3-acetoxymethyl-3-cephem-4-carboxylic acid] | 25 (≈ 34.2 µM) | 12.5 (≈ 17.1 µM) | 50 (≈ 68.4 µM) | 3.1 (≈ 4.24 µM) | 6.3 (≈ 8.62 µM) |  | 12.5 (≈ 17.1 µM) | 6.3 (≈ 8.62 µM) | 0.8 (≈ 1.09 µM) | 6.3 (≈ 8.62 µM) | 12.5 (≈ 17.1 µM) | 25 (≈ 34.2 µM) |  |
| CC(=O)NC(C)C(=O)Nc1ccc(-c2ccc(C(=O)N[C@@H](C(=O)NC3C(=O)N4C(C(=O)O)=C(COC(C)=O)CSC34)c3ccccc3)c(=O)[nH]2)cc1 (mixture of isomers) [Example 3, N-[6-[4-(N-Acetyl-DL-alanylamino)phenyl]-1,2-dihydro-2-oxonicotinyl]-7-[D-2-amino-2-phenylacetamido]-3-acetoxymethyl cephem-4-carboxylic acid] | 25 | 12.5 | 25 | 3.1 | 12.5 |  | 25 | 6.3 | 0.4 | 6.3 | 12.5 | 25 |  |
| CC(=O)N[C@H](CCC(N)=O)C(=O)Nc1ccc(-c2ccc(C(=O)N[C@@H](C(=O)NC3C(=O)N4C(C(=O)O)=C(CSc5nnnn5CC(=O)O)CSC34)c3ccccc3)c(=O)[nH]2)cc1 (stereo partly drawn) [Example 37, N-[6-[4-(N-Acetyl-D-glutaminylamino)phenyl]-1,2-dihydro-2-oxonicotinyl]-7-[D-2-amino-2-phenylacetamido]-3-[[(1-carboxymethyl-1H-tetrazol-5-yl)thio]methyl]-3-cephem-4-carboxylic acid] | > 50 | 6.3 (≈ 7.1 µM) | 12.5 (≈ 14.1 µM) | 0.8 (≈ 0.901 µM) | 6.3 (≈ 7.1 µM) |  | 6.3 (≈ 7.1 µM) | 12.5 (≈ 14.1 µM) | 6.3 (≈ 7.1 µM) | 3.1 (≈ 3.49 µM) | 12.5 (≈ 14.1 µM) | 3.1 (≈ 3.49 µM) |  |
| CC(=O)N[C@@H](C)C(=O)Nc1ccc(-c2ccc(C(=O)N[C@@H](C(=O)NC3C(=O)N4C(C(=O)O)=C(CSc5nnnn5C)CSC34)c3ccccc3)c(=O)[nH]2)cc1 (stereo partly drawn) [Example 20, N-[6-[4-(N-Acetyl-L-alanylamino)phenyl]-1,2-dihydro-2-oxonicotinyl]7-[D-2-amino-2-phenylacetamido]-3-[[(1-methyl-1H-tetrazol-5-yl)thio]methyl]-3-cephem-4-carboxylic acid] | 25 (≈ 31.8 µM) | 6.3 (≈ 8.01 µM) | 25 (≈ 31.8 µM) | 1.6 (≈ 2.03 µM) | 12.5 (≈ 15.9 µM) |  | 6.3 (≈ 8.01 µM) | 12.5 (≈ 15.9 µM) | 1.6 (≈ 2.03 µM) | 1.6 (≈ 2.03 µM) | 12.5 (≈ 15.9 µM) | 12.5 (≈ 15.9 µM) |  |

Reference: patent US4311698A, “Aminoacid derivatives of cephalosporin compounds” (priority 1980, dated 1982)
